Earlier results, collected in patent US7705017B2, “Compounds for treatment of neurodegenerative diseases” (En Vivo Pharmaceuticals, Inc., priority 2004, dated 2010).

Experiments:
[1] = tested on: Huntington's disease in a mouse model; conditions: orally administered
[2] = tested on: Histone Deacetylase-Like Protein (HDLP); conditions: HDLP deacetylates histones in vitro

Row | inhibition of HDAC-like protein (HDLP) [2] | SMILES | motor impairment in mice [1]
1 |  | O=C(CCCCCCC(=O)Nc1ccccc1)NO [SAHA, suberoylanilide hydroxamic acid] | dramatically improved the motor impairment
2 | inhibited | CC(/C=C/C(=O)NO)=C\[C@@H](C)C(=O)c1ccc(N(C)C)cc1 [TSA, trichostatin A] | 
